According to patent US20120305476A1, “TREATMENT METHOD FOR REDUCING THE PRODUCTION OF AN H2S COMPOUND IN AQUEOUS EFFLUENTS PASSING INTO A PIPE” (CENTRE NATIONAL DE LA RECHERCHE SCIENTIFIQUE (CNRS), priority 2010, published 2012):
Read-outs that look alike come from different tables or passages of the source.

Experiments:
[1] = system: Desulfovibrio vulgaris Hindelborough (DvH); assay: H2S production by stationary-phase DvH culture on lactate/sulfate medium with metabolic inhibitors; format: cell-based; settings: for effect of metabolic inhibitor on DvH culture / H2S production: tested at different concentrations
Experimental: Experiments were carried out with the SRB bacterium Desulfovibrio vulgaris Hindelborough (DvH) for which the genome has been sequenced and which is the model system for the study of sulfate-reducing bacteria.
The culture medium was a lactate/sulfate medium comprising: sodium sulfate 28 mM, magnesium sulfate 8 mM, lactate 45 mM and oligoelements (iron, Zn, Mn, Cu, Co, Mo, Ni, Se, W, Mg).
Various metabolic inhibitors were tested at different concentrations; examples were the addition of iron, oxygen, or a detergent. […] The study was continued by looking at the effect of adding small defined quantities of nitrite and nitrate on the production of H2S by the SRB.

[2] = system: sulfate-reducing bacteria (SRB)
Experimental: Experiments were carried out on a sewerage system diagrammatically shown in FIG. 6, comprising a cesspool 3 supplied with effluent 1 from a conduit 11, a lifting pump 4 that was used to supply a force main 2 from the cesspool 3 to a holding tank 8 cooperating with a gravity fed transfer conduit 9 to a treatment plant (not shown).
The force main 2 was 1170 m [meter] long with a nominal diameter of 250 mm [millimeter], giving a volume of 57.5 m^3. The delivery of the lifting pump was 150 m^3/hour. A nitrite tank 12 cooperated with a dosing pump 7 to inject nitrite into the effluents entering the force main 2.
Sodium nitrite NaNO2 was tested in 40% by weight solution with a density of 1.3. This reagent was injected directly into the effluent pumping pit almost level with the inlet thereof into the force main via a dedicated dosing pump 7 that could reach a delivery of up to 14 L/h. Start-up of the dosing pump 7 was linked with that of the lifting pump 4 with the two pumps being stopped by a low level of effluents in the cesspool 3.
Various measurements for the concentration of sulfide in water leaving the force main were carried out. The concentration of sulfide in water was determined by means of an assay kit using the reaction of H2S with aniline forming a colorless intermediate that is oxidized by ferric ions to a colored compound: methylene blue, an optical disk comparator with a color gradient, was used to determine the concentration of sulfide in the solution as a function of its color. The temperatures of the effluent and redox potential were measured at the holding tank or settling tank 8 using standard equipment.

[3] = system: Desulfovibrio vulgaris Hindelborough (DvH); settings: SRB pure strain (DvH alone), FIG. 2
Source text: FIG. 2 represents the relationship between the quantity of biomass (%) and the production of H2S (mM) for a stationary phase culture of DvH bacteria in the presence of different concentrations of nitrites or nitrates in the culture medium. The quantity of biomass (bacterial survival) is expressed as the % optical density (OD) at 600 nm [nanometer] compared with the OD at 600 nm of the biomass for a DvH culture on a lactate/sulfate medium in the absence of treatment, this culture representing 100%;
In FIG. 2, the quantities of biomass (% growth) and production of H2S (mM) are shown under the following conditions: ? =% growth+nitrite, ? =H2S production+nitrite, ? =% growth+nitrate, ? H2S production+nitrate;
In FIG. 2, bacterial survival was monitored.

[4] = system: DvH+Shewanella consortium; settings: 5 mM; for production of H2S: FIG. 3 panel B
Source text: FIG. 3 represents the effect of adding exogenous bacteria of the Shewanella type on the growth of a strain of sulfate-reducing bacteria, DvH, in the presence of nitrate or nitrite (panel A, %=quantity of biomass expressed as a % of the optical density (OD) at 600 nm [nanometers], such that 100% represents the OD at 600 nm for the biomass of a culture of DvH on a lactate/sulfate medium in the absence of treatment) and on the production of H2S (panel B, mM H2S). The control (growth and production of H2S) used a DvH culture with or without the addition of inhibitor. The effect of adding the Shewanella bacteria on the growth and production of H2S is presented in the presence of nitrate (+nitrite) and in the absence of nitrite (nitrite). The Shewanella bacteria alone had no significant effect on H2S production. In FIG. 3, the various symbols represent the experiments under the following conditions: ? =5 mM of nitrate on a DvH+Shewanella consortium, ? =consortium of DvH+Shewanella bacteria in the presence of 5 mM of nitrite, ? =presence of DvH bacteria alone, ? =presence of DvH bacteria alone+nitrite;
A wide range of non-pathogenic aerobic and anaerobic bacteria known to be decontaminants that are compatible with a toxic environment was tested, including the following Gram− aerobic bacteria: Shewanella oneidensis, Rhodobacter sphaeroides, Rhodobacter denitrificans, R. velkampi, Pseudomonas stutzeri, Pseudomonas zobell and Rhospeudomonas palustri, as well as the following anaerobic Gram+ bacteria: Bacillus mojavensis and Bacillus amiloliquefaciens.
However, it has been discovered that it is possible to overcome this bactericidal effect problem by adding exogenic bacteria.

[5] = system: SRB bacteria that produce H2S; settings: treatment with nitrite alone; cited from earlier work
[6] = system: bacteria from the sludge sample (Shigella/Escherichia coli/Salmonella, Clostridium, Desulfovibrio type)

With O=O [oxygen] the “effect of metabolic inhibitor on DvH culture / H2S production” value [1] was “production of H2S restarted as soon as the redox potential of the medium became negative again”.

With [Fe] [iron] the “effect of metabolic inhibitor on DvH culture / H2S production” value [1] was “induced a drastic oxidizing stress and caused bacterial death”.

In the case of O=NO [sodium nitrite], the “maximum quantity of dissolved sulfide H2S at the outlet from the force main” value ([2]; 2.5 g/m^3 to 6 g/m^3 per g/m^3 of sulfide to be reduced, every other day or overnight) is reported as at most 1.5 mg/L, the “quantity of dissolved sulfites at the force main outlet” value ([2]; 4 g to 5 g per gram of dissolved sulfide produced in the absence of treatment) is reported as at most 1 mg/L and the “reduction of dissolved sulfide produced by the conduit” value ([2]; daily treatments with 2.5 g/m^3 to 6 g/m^3 of NaNO2) is reported as 1 g/m^3. For the same molecule, the “remanence of inhibiting activity” value ([2]; on-site, transient and intermittent treatment) was “remanence effect” and the bacterial survival [3] was “lethal effect on bacteria”.

For O=NO [nitrite], the biomass ([4]; FIG. 3 panel A) is listed as “maintaining the biomass”, the “production of H2S” value [4] is listed as “reduction in the production of H2S” and the “effect on hydrogen sulfide production” value [5] is listed as “No effect on hydrogen sulfide production is observed”. The “biomass (bactericidal effect)” value ([6]; beyond 5 mM of nitrite) was “biomass was slightly affected”, the “inhibiting effect on H2S production” value ([6]; beyond 5 mM of nitrite) was “inhibiting effect on H2S production reduced” and the cell death ([6]; even in the absence of Shewanella, concentration 5 mM or less) was “did not induce cell death”. For the same molecule, the “duration of the effect on the bacteria after nitrite is consumed” value ([6]; nitrite consumed over time) was “long-lasting effect or remanence effect”, the “concentration from which a drop in the production of H2S is induced” value ([6]; sludge sample) was at least 3 mM and the “rise in the sulfide concentrations after stopping the nitrite treatment” value ([2]; after 24 h) was “no more than 25%”. The “rise in the sulfide concentrations after stopping the nitrite treatment” value ([2]; after stopping treatment) was “approximately 10%”, the “concentration giving visible and substantial inhibition of H2S production” value [1] was at least 5 mM and the “reduction of the production of H2S” value [1] was “approximately 90%”.

For O=[N+]([O-])O [nitrate], the “production of H2S” value [4] was “no significant reduction in H2S production was observed”, the “concentration giving visible and substantial inhibition of H2S production” value [1] was 15 mM and the “reduction of the production of H2S” value [1] was “approximately 90%”.
